Experimental findings from patent publication US20230119479A1, “A HISTONE DEACETYLASE INHIBITOR HAVING A NITROGEN-CONTAINING AROMATIC HETEROCYCLYL GROUP” (SHIONOGI & CO., LTD., priority 2019, published 2023) are described below.

In this assay the target is T1, HDAC2 Human recombinant C-terminal FLAG-tag (Homo sapiens, UniProt Q92769).
T1 construct: FLAG (C); purchased BPS Bioscience 50052
The assay is described as follows: Measurement of HDAC2 enzyme inhibitory activity (HTRF). The note with it: recombinant HDAC2, H3K9ac peptide, 3 hours room temperature; read-out: HDAC2 IC50. The assay is classed as biochemical. How it is done:
Test Example 1: Measurement of HDAC2 Enzyme Inhibitory Activity
The HDAC2 enzyme inhibitory activity was measured by the method described in the following test example.
To each well of a 384-well plate (Corning, 4514), DMSO solution of the test compound was dispensed at 50 nL/well from a final concentration of 99 μM to 8 points (n=2) in the 3-fold dilution series using Echo555 (Beckman Coulter). 2.5 μl of 0.005 mg/mL recombinant enzyme HDAC2 (HDAC2 Human recombinant C-terminal FLAG-tag, BPS Bioscience, 50052) was added to each well, 2.5 μl of 0.6 μM H3K9ac peptide (Lys(Ac)9-Histone H3 (1-21)-GGK(Biotin), AnaSpec, 64361) was added, mixed, and reacted in a wet box at room temperature for 3 hours. 50 mM Tris HCL pH8.0, 137 mM sodium chloride, 2.7 mM potassium chloride, 1 mM magnesium chloride, 0.01% Tween20, and 0.1% BSA which were diluted with ultrapure water were used as a reaction buffer at this time. After the reaction, 5 μL of 10 μM SAHA (suberoylanilide hydroxamic acid) as a reaction terminator and the 5 μL of a mixture of 2.5 ng of H3K9me0 antibody (ActiveMotif, 61399) labeled in-house with europium cryptate (Cisbio, 65EUSABA) and 125 nM streptavidin-XL665 (Cisbio, 610SAXLA) as an HTRF (time-resolved fluorescence) reagent were added to each well, mixed, and allowed to stand in a wet box at room temperature for reaction. A detection buffer used at this time was 50 mM Tris HCL pH 8.0, 0.8 M potassium fluoride, and 0.1% BSA which were diluted with ultrapure water. After reacting for 2 hours or more, HTRF was measured using a multi-plate reader such as SpectraMax Paradigm (MOLECULAR DEVICE) or RUBYstar (BMG LABTECH). Ratio (665 nm/615-620 nm×10000) was calculated from the fluorescence values of two wavelengths, 615-620 nm and 665 nm, which were excited at 320-340 nm, and the energy transition was obtained.
In general terms: Time-resolved FRET reads energy transfer from a long-lived donor to a nearby acceptor.

T1 sequence (Q92769 whole entry): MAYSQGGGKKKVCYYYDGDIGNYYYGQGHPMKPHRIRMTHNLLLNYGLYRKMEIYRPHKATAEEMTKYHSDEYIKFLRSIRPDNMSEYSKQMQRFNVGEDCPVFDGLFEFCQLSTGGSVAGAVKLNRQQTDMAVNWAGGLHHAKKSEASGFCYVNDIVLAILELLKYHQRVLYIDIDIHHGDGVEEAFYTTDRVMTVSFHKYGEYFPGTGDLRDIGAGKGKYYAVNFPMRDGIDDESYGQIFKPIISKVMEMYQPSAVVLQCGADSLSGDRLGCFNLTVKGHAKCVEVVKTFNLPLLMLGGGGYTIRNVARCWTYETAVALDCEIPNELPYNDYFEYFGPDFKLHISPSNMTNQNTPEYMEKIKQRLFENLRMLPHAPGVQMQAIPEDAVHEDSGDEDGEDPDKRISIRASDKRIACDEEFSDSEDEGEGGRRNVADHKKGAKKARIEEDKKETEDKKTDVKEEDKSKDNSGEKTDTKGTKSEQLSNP

Take `Nc1ccc(-c2ccccc2)nc1NC(=O)c1ccc2c(n1)OCC(=O)N2` [Compound I-233]: the IC50 – broadly, the midpoint of a concentration-inhibition curve – stood at 280 nM. On to `Nc1ccc(-n2cccc2)nc1NC(=O)c1ccc2c(n1)OCC(=O)N2` [Compound I-234], for which the IC50 stood at 240 nM. The value for `Nc1ccc(-c2ccc(F)nc2)cc1NC(=O)c1cnc(N2CC3(CCO3)C2)cn1` [Compound I-235] was 60 nM; that for `Nc1ccc(-c2ccc(F)nc2)cc1NC(=O)c1cnc(N2CCC23COC3)cn1` [Compound I-236] was 70 nM. With `CCN(C)c1cnc(C(=O)Nc2cc(-c3cnn(C)c3)ccc2N)cn1` [Compound I-237] the figure was 160 nM; with `Cn1cc(-c2ccc(N)c(NC(=O)c3cnc(N4CCC4)cn3)c2)cn1` [Compound I-238], 150 nM; with `Nc1ccc(-c2ccc(F)nc2)cc1NC(=O)c1cnc(Cl)cn1` [Compound I-239], 230 nM. With `Nc1ccc(-c2ccc(F)nc2)cc1NC(=O)c1cnc(N2CCCC2)cn1` [Compound I-240] the figure was 80 nM. On to `Cn1cc(-c2ccc(N)c(NC(=O)c3cnc(N4CCCC4)cn3)c2)cn1` [Compound I-241], for which the IC50 was found to be 140 nM. The value for `CC(C)Nc1cnc(C(=O)Nc2cc(-c3ccc(F)nc3)ccc2N)cn1` [Compound I-242] was 40 nM; that for `Nc1ccc(-c2ccc(F)nc2)cc1NC(=O)c1ccc(C2CCC2)cn1` [Compound I-243] was 260 nM; that for `CC(=O)N(C)c1cnc(C(=O)Nc2cc(-c3cnn(C)c3)ccc2N)cn1` [Compound I-244] was 470 nM. On to `Nc1ccc(-c2ccc(F)nc2)cc1NC(=O)c1cnc(N2CC3(COC3)C2)cn1` [Compound I-245], for which the IC50 came to 70 nM. The value for `Nc1ccc(-c2ccc(F)nc2)cc1NC(=O)c1ccc(C2COC2)cn1` [Compound I-246] was 110 nM; that for `CN(C)c1cnc(C(=O)Nc2nc(-c3ccc(F)nc3)ccc2N)cn1` [Compound I-247] was 380 nM. With `CC(=O)N(C)c1cnc(C(=O)Nc2cc(-c3ccc(F)nc3)ccc2N)cn1` [Compound I-248] the figure was 220 nM; with `CCc1cnc(C(=O)Nc2cc(-c3ccc(F)nc3)ccc2N)cn1` [Compound I-249], 70 nM; with `CC(C)c1cnc(C(=O)Nc2cc(-c3ccc(F)nc3)ccc2N)cn1` [Compound I-251], 110 nM. The value for `CC(C)c1cnc(C(=O)Nc2cc(-c3cnn(C)c3)ccc2N)cn1` [Compound I-252] was 170 nM; that for `COc1ccc(C(=O)Nc2cc(-c3ccc(F)nc3)ccc2N)nn1` [Compound I-253] was 150 nM; that for `Cn1cc(-c2ccc(N)c(NC(=O)c3cc4c(cn3)OCCC4)c2)cn1` [Compound I-255] was 410 nM. `Cc1ccc(C(=O)Nc2cc(-c3ccc(F)nc3)ccc2N)nn1` [Compound I-256]: the IC50 turned out to be 260 nM. In the case of `Cc1ccc(C(=O)Nc2cc(-c3cnn(C)c3)ccc2N)nn1` [Compound I-257], the IC50 worked out at 570 nM. The value for `COc1cnc(C(=O)Nc2cc(-c3cnn(C)c3)ccc2N)nc1` [Compound I-258] was 870 nM. With `COc1cnc(C(=O)Nc2cc(-c3ccc(F)nc3)ccc2N)nc1` [Compound I-259], the IC50 is 340 nM. Consider `CCc1cnc(C(=O)Nc2nc(-c3ccccc3)ccc2N)cn1` [Compound I-260], for which the IC50 was determined as 470 nM. The value for `CCc1cnc(C(=O)Nc2nc(-n3cccc3)ccc2N)cn1` [Compound I-261] was 260 nM; that for `Nc1ccc(-c2ccc(F)nc2)cc1NC(=O)c1ccc(N2CCOCC2)nn1` [Compound I-262] was 100 nM. In the case of `CN(C)c1ccc(C(=O)Nc2cc(-c3ccc(F)nc3)ccc2N)nn1` [Compound I-263], the concentration for half-maximal inhibition (IC50) is 120 nM. Consider `Nc1ccc(-c2ccc(F)nc2)cc1NC(=O)c1ccc(Cl)nn1` [Compound I-264], for which the IC50 was 270 nM. The value for `CC(=O)Nc1ccc(C(=O)Nc2cc(-c3cnn(C)c3)ccc2N)nc1` [Compound I-265] was 90 nM.
